In ChEMBL document CHEMBL1201862, “PubChem BioAssay data set” (2004):
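In this assay, cells in 96-well plates receive the compound at five concentrations for 48 hours. Endpoints are linearly interpolated between the surrounding concentrations. Abbreviation: GI50, concentration required for 50% inhibition of growth.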 Calls of active or inactive are those of the source. Cut-off read from the data, not from the text of the source: active = GI50 up to about 1.1 µM and inactive = higher.

Assays:
Assay in all cases: NCI-60 cell line screen, 48 h
A549 = tested on: A549
ACHN = tested on: ACHN
EKVX = tested on: EKVX
HCT-15 = tested on: HCT-15
HT-29 = tested on: HT-29
M14 = tested on: M14
NCI-H460 = tested on: NCI-H460
OVCAR-4 = tested on: OVCAR-4
RPMI-8226 = tested on: RPMI-8226
RXF 393 = tested on: RXF 393
SF-268 = tested on: SF-268
SK-MEL-5 = tested on: SK-MEL-5
TK-10 = tested on: TK-10
U-251 = tested on: U-251
UACC-62 = tested on: UACC-62
UO-31 = tested on: UO-31
MDA-MB-231 = tested on: MDA-MB-231
MDA-MB-435 = tested on: MDA-MB-435
NCI/ADR-RES = tested on: NCI/ADR-RES

SMILES	GI50 (A549)	GI50 (ACHN)	GI50 (EKVX)	GI50 (HCT-15) [µM]	GI50 (HT-29)	GI50 (M14)	GI50 (NCI-H460)	GI50 (OVCAR-4)	GI50 (RPMI-8226)	GI50 (RXF 393)	GI50 (SF-268)	GI50 (SK-MEL-5)	GI50 (TK-10)	GI50 (U-251)	GI50 (UACC-62)	GI50 (UO-31)	GI50 (MDA-MB-231)	GI50 (MDA-MB-435)	GI50 (NCI/ADR-RES)
Nc1c([N+](=O)[O-])nc(Cl)c2nncn12	> 100 µM (inactive)	> 100 µM (inactive)	> 100 µM (inactive)	19.3	96.8 µM (inactive)	> 100 µM (inactive)	> 56.6 µM (inactive)	> 100 µM (inactive)	> 47.1 µM (inactive)	> 100 µM (inactive)	> 87.9 µM (inactive)	> 100 µM (inactive)	> 100 µM (inactive)	> 71.9 µM (inactive)	> 100 µM (inactive)	> 100 µM (inactive)	–	–	–
C[C@]12CCc3nn(-c4ccccc4)nc3C1CC[C@@H]1C2CC[C@]2(C)C(=O)CCC12 (some centres undefined)	> 100 µM (inactive)	> 100 µM (inactive)	> 100 µM (inactive)	> 100	> 100 µM (inactive)	> 100 µM (inactive)	> 100 µM (inactive)	> 100 µM (inactive)	> 100 µM (inactive)	> 100 µM (inactive)	> 100 µM (inactive)	> 100 µM (inactive)	> 100 µM (inactive)	> 100 µM (inactive)	> 100 µM (inactive)	> 100 µM (inactive)	–	–	–
COC(=O)/C=C/C1C(C(=O)OC)C2(C(=O)OC)CCC1(C(=O)OC)N2 (centres undefined)	> 100 µM (inactive)	> 100 µM (inactive)	> 100 µM (inactive)	> 100	> 100 µM (inactive)	> 100 µM (inactive)	> 100 µM (inactive)	> 100 µM (inactive)	> 100 µM (inactive)	> 100 µM (inactive)	> 100 µM (inactive)	> 100 µM (inactive)	> 100 µM (inactive)	> 100 µM (inactive)	> 100 µM (inactive)	> 100 µM (inactive)	–	–	–
O=c1c(Cc2ccc(Cl)cc2)nnc2sc(-c3ccc([N+](=O)[O-])cc3)nn12	24.3 µM (inactive)	25.9 µM (inactive)	23.2 µM (inactive)	14.6	30.1 µM (inactive)	16.9 µM (inactive)	16.1 µM (inactive)	28.7 µM (inactive)	21.3 µM (inactive)	24.3 µM (inactive)	32.1 µM (inactive)	–	25.8 µM (inactive)	29 µM (inactive)	14.2 µM (inactive)	21.3 µM (inactive)	21 µM (inactive)	14.5 µM (inactive)	32.1 µM (inactive)
CC(C)=CCC/C(C)=C/CC/C(C)=C/C1CCC(=O)C1(C)C (centres undefined)	27 µM (inactive)	16.6 µM (inactive)	19.7 µM (inactive)	15.5	17.5 µM (inactive)	19.5 µM (inactive)	17.5 µM (inactive)	24.9 µM (inactive)	20 µM (inactive)	22.1 µM (inactive)	17.1 µM (inactive)	15.1 µM (inactive)	39.4 µM (inactive)	18.1 µM (inactive)	19.1 µM (inactive)	17 µM (inactive)	–	–	–
CN1COc2c(n(C)c(=O)[nH]c2=O)C1	> 100 µM (inactive)	> 100 µM (inactive)	> 100 µM (inactive)	98.2	> 100 µM (inactive)	> 100 µM (inactive)	> 100 µM (inactive)	> 100 µM (inactive)	26.1 µM (inactive)	> 66.7 µM (inactive)	> 100 µM (inactive)	> 100 µM (inactive)	> 100 µM (inactive)	> 100 µM (inactive)	> 80 µM (inactive)	> 100 µM (inactive)	–	–	–
C/C=C(C)/C=C/CC(C)CCC=C(C)C (centres undefined)	> 100 µM (inactive)	> 100 µM (inactive)	> 100 µM (inactive)	> 100	> 100 µM (inactive)	> 100 µM (inactive)	> 100 µM (inactive)	92.9 µM (inactive)	–	> 100 µM (inactive)	–	> 100 µM (inactive)	> 100 µM (inactive)	> 100 µM (inactive)	> 100 µM (inactive)	> 100 µM (inactive)	> 100 µM (inactive)	> 100 µM (inactive)	> 100 µM (inactive)
O=C(CN1CCOCC1)c1ccc2[nH]c(=O)oc2c1	–	> 100 µM (inactive)	> 100 µM (inactive)	> 100	> 100 µM (inactive)	> 100 µM (inactive)	> 100 µM (inactive)	–	> 100 µM (inactive)	> 100 µM (inactive)	> 100 µM (inactive)	> 100 µM (inactive)	> 100 µM (inactive)	> 100 µM (inactive)	> 100 µM (inactive)	41.9 µM (inactive)	> 100 µM (inactive)	> 100 µM (inactive)	> 100 µM (inactive)
CCOC(CNc1nn2c(C)nnc2s1)OCC	> 100 µM (inactive)	> 100 µM (inactive)	> 100 µM (inactive)	> 100	> 100 µM (inactive)	> 100 µM (inactive)	> 100 µM (inactive)	> 100 µM (inactive)	> 100 µM (inactive)	> 100 µM (inactive)	> 100 µM (inactive)	> 100 µM (inactive)	> 100 µM (inactive)	> 100 µM (inactive)	> 100 µM (inactive)	–	> 100 µM (inactive)	> 100 µM (inactive)	> 100 µM (inactive)
O=C(/N=N/C(=O)OCc1ccccc1)OCc1ccccc1	81.3 µM (inactive)	76.4 µM (inactive)	> 100 µM (inactive)	94.2	> 100 µM (inactive)	> 100 µM (inactive)	> 100 µM (inactive)	66.1 µM (inactive)	53.2 µM (inactive)	> 100 µM (inactive)	96.4 µM (inactive)	> 100 µM (inactive)	> 100 µM (inactive)	83.8 µM (inactive)	> 100 µM (inactive)	31.6 µM (inactive)	–	–	–
COc1cc(/C=C2\CCC(C)c3c2nc(N)c(C#N)c3-c2cc(OC)c(OC)c(OC)c2)cc(OC)c1OC (centres undefined)	> 100 µM (inactive)	> 100 µM (inactive)	34.5 µM (inactive)	27.1	33.3 µM (inactive)	45.7 µM (inactive)	–	31.5 µM (inactive)	56.2 µM (inactive)	73.3 µM (inactive)	25.7 µM (inactive)	71.9 µM (inactive)	75.3 µM (inactive)	46 µM (inactive)	> 100 µM (inactive)	–	37.2 µM (inactive)	> 100 µM (inactive)	–
CCCCCCCCNC(=O)SCCCC	33.9 µM (inactive)	34.6 µM (inactive)	29.4 µM (inactive)	27.9	20.8 µM (inactive)	33.8 µM (inactive)	28.4 µM (inactive)	36.7 µM (inactive)	22.4 µM (inactive)	24.3 µM (inactive)	34.9 µM (inactive)	21.3 µM (inactive)	29 µM (inactive)	36.9 µM (inactive)	43.2 µM (inactive)	26.5 µM (inactive)	–	–	–
O=c1[nH]c2c3ccccc3ccc2c2cc3c(cc12)OCO3	75.9 µM (inactive)	69.3 µM (inactive)	49.2 µM (inactive)	71.6	> 100 µM (inactive)	> 100 µM (inactive)	> 100 µM (inactive)	> 100 µM (inactive)	72.8 µM (inactive)	28.8 µM (inactive)	98.6 µM (inactive)	43.5 µM (inactive)	> 100 µM (inactive)	> 100 µM (inactive)	> 100 µM (inactive)	39.4 µM (inactive)	–	–	–
C=C1C(=O)OC2C1C(OC(=O)/C(C)=C\C)CC1(CO1)C1C(O)C=C(C)C21O (centres undefined)	20.6 µM (inactive)	3.16 µM (inactive)	12.8 µM (inactive)	2.81	13 µM (inactive)	2.63 µM (inactive)	14.3 µM (inactive)	7.78 µM (inactive)	4.56 µM (inactive)	2.73 µM (inactive)	2.64 µM (inactive)	4.28 µM (inactive)	3.44 µM (inactive)	12.2 µM (inactive)	1.74 µM (inactive)	10.3 µM (inactive)	–	–	–
Cc1cc(Cl)ccc1NC(=O)C(=O)C(C(=O)c1ccccc1)C1OC(=O)c2ccccc21 (centres undefined)	> 100 µM (inactive)	> 100 µM (inactive)	> 100 µM (inactive)	> 100	> 100 µM (inactive)	> 100 µM (inactive)	> 100 µM (inactive)	> 100 µM (inactive)	> 100 µM (inactive)	> 100 µM (inactive)	> 100 µM (inactive)	> 100 µM (inactive)	> 100 µM (inactive)	> 100 µM (inactive)	> 100 µM (inactive)	> 100 µM (inactive)	–	–	–
c1ccc2sc(C3(N4CCCC4)CCCCCC3)cc2c1	19.6 µM (inactive)	23.6 µM (inactive)	17.3 µM (inactive)	17.5	4.1 µM (inactive)	14.8 µM (inactive)	13.3 µM (inactive)	13.4 µM (inactive)	–	12.3 µM (inactive)	13.5 µM (inactive)	16.6 µM (inactive)	17.4 µM (inactive)	17.2 µM (inactive)	16.2 µM (inactive)	12.8 µM (inactive)	17.1 µM (inactive)	16.4 µM (inactive)	19.7 µM (inactive)
N#C/C(=C\c1ccc(O)cc1O)C(N)=O	> 100 µM (inactive)	32.7 µM (inactive)	> 100 µM (inactive)	> 100	29.8 µM (inactive)	82.2 µM (inactive)	> 100 µM (inactive)	> 100 µM (inactive)	55.6 µM (inactive)	20.5 µM (inactive)	> 100 µM (inactive)	–	> 100 µM (inactive)	> 100 µM (inactive)	58.6 µM (inactive)	33.6 µM (inactive)	–	–	–
